Data published in US12612410B2 (CHILDREN'S HOSPITAL MEDICAL CENTER, priority 2020, dated 2026).

Columns and labels:
MOLM14 D835Y cells = test: MOLM14 D835Y cell viability assay (Cell Titer Glo); type: cell-based; conditions: Homo sapiens, MOLM-14, 48 h
In short: (§1)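 MOLM14 cells carrying FLT3 D835Y or F691L were seeded at 1000 cells/well in RPMI-1640 with 20% FBS and dosed at 22 concentrations, 1:2 dilutions from 10 μM. Viability after 48 h by Cell Titer Glo luminescence; 2.3 μM bortezomib as cytotoxic control.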

MOLM14 F691L cells = test: MOLM14 F691L cell viability assay (Cell Titer Glo); type: cell-based; conditions: Homo sapiens, MOLM-14, 48 h
In short: as §1

IRAK4 = target: T1, IRAK4 (Homo sapiens, UniProt Q9NWZ3); test: RBC HotSpot Kinase Assay, IRAK4; type: biochemical; set-up: purchased Reaction Biology (RBC), HotSpot kinase assay; conditions: isolated kinase, 33P-ATP
T1 sequence (Q9NWZ3 1-460): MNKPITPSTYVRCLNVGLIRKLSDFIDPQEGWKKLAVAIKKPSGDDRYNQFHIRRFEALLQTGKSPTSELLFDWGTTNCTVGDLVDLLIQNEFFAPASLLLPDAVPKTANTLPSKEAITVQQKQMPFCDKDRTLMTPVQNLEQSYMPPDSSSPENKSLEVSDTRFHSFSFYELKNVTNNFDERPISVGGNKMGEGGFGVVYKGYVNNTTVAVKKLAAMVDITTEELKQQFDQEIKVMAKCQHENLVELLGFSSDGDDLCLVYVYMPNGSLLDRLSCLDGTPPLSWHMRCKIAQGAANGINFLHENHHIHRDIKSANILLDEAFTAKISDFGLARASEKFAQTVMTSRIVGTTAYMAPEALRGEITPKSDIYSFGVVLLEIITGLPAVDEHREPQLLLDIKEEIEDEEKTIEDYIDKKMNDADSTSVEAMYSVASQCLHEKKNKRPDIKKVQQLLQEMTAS
In short: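 Read-out was P81 filter binding of 33P incorporated into substrate by isolated kinase during a 2 h room-temperature reaction. Compound was preincubated with enzyme for 20 min at room temperature; buffer was Hepes pH 7.5 with Mg2+, EGTA, Brij35 and 1% DMSO.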

IC50 (MOLM14 D835Y cells)	IC50 (MOLM14 F691L cells)	IC50 (IRAK4)	Structure (SMILES)
30 nM	211 nM	< 0.5 nM	CC(O)(c1cn2c(-c3cccc(N[C@@H]4CCCNC4)n3)cnc2cn1)C(F)(F)F (single isomer, unassigned) [Compound 81]
11 nM	106 nM	1 nM	Cn1cc(-c2cn3c(-c4cccc(N[C@H]5CNC[C@@H]5F)n4)cnc3cn2)cn1 [Compound 52, N-((3S,4S)-4-fluoropyrrolidin-3-yl)-6-(6-(1-methyl-1H-pyrazol-4-yl)imidazo[1,2-a]pyrazin-3-yl)pyridin-2-amine]
75 nM	381 nM	< 0.5 nM	CC(C)(O)c1cn2c(-c3cccc(N[C@@H]4CCCNC4)n3)cnc2cn1 [Compound 30, (R)-2-(3-(6-(piperidin-3-ylamino)pyridin-2-yl)imidazo[1,2-a]pyrazin-6-yl)propan-2-ol]
21 nM	97 nM	38 nM	O=C1CCCN1c1cn2c(-c3nc(N[C@H]4CNCC[C@@H]4F)c(F)cc3F)cnc2cn1 [Compound 107, 1-[3-[3,5-difluoro-6-[[(3S,4S)-4-fluoro-3-piperidyl]amino]-2-pyridyl]imidazo[1,2-a]pyrazin-6-yl]pyrrolidin-2-one]
